# Active and inactive are the calls of the source. The rule behind the calls is not given here.
# Columns and labels:
# Cannabinoid receptor 2 [1] = molecular target: T1, Cannabinoid receptor 2 (Homo sapiens, UniProt P34972); test: Effective concentration for inhibition of human Cannabinoid receptor 2-mediated adenylyl cyclase using African green monkey (COS-7) cells transfected with the cDNA of human CB2 receptor; format: functional
# Cannabinoid receptor 2 [2] = molecular target: T1, Cannabinoid receptor 2; test: Binding affinity of compound towards Cannabinoid receptor 2 in african green monkey COS-7 cells transfected with cDNA of human CB2 receptor; format: cell-based
# Cannabinoid receptor 1 [3] = molecular target: T2, Cannabinoid receptor 1 (Rattus norvegicus, UniProt P20272); test: Binding affinity of compound towards Cannabinoid receptor 1 in african green monkey COS-7 cells transfected with cDNA of rat CB1 receptor; format: cell-based
# Cannabinoid receptor 1 [4] = molecular target: T2, Cannabinoid receptor 1; test: Effective concentration for inhibition of Cannabinoid receptor 1-mediated adenylyl cyclase activity using African green monkey (COS-7) cells transfected with the cDNA of rat CB1 receptor; format: functional
# Cannabinoid receptor 1 [5] = molecular target: T2, Cannabinoid receptor 1; test: Binding affinity of compound towards Cannabinoid receptor 1 in rat brain synaptosomal membrane preparations; format: cell membranes
# [6] = molecular target: Cannabinoid receptor 1 (Rattus norvegicus) (UniProt P20272); test: Inhibitory affect of 1 uM of the substance against Cannabinoid receptor 1-mediated adenylyl cyclase using African green monkey (COS-7) cells transfected with the cDNA of rat CB1 receptor; No inhibition; format: functional, cell-based
# [7] = molecular target: Cannabinoid receptor 1 (Rattus norvegicus) (UniProt P20272); test: Inhibitory affect of 1 uM 0f the substance against cDNA of rat Cannabinoid receptor 1
# Cannabinoid receptor 2 [8] = molecular target: T1, Cannabinoid receptor 2; test: Inhibitory activity of 1 uM against human Cannabinoid receptor 2-mediated adenylyl cyclase using African green monkey (COS-7) cells transfected with the cDNA of human CB2 receptor; format: functional, cell-based
# Cannabinoid receptor 1 [9] = molecular target: T2, Cannabinoid receptor 1; test: Binding affinity for Cannabinoid receptor 1 using African green monkey (COS-7) cells transfected with the cDNA of […].
# Cannabinoid receptor 2 [10] = molecular target: T1, Cannabinoid receptor 2; test: Inhibitory effect of 1 uM of the substance against African green monkey (COS-7) cells Chinese hamster ovary(CHO) cells transfected with the cDNA of human Cannabinoid receptor 2; format: cell-based
# [11] = molecular target: Cannabinoid receptor 1 (Rattus norvegicus) (UniProt P20272); test: Inhibitory affect of 1 uM againstAfrican green monkey (COS-7) cells transfected with the cDNA of rat Cannabinoid receptor 1; format: cell-based
# [12] = molecular target: Cannabinoid receptor 1 (Rattus norvegicus) (UniProt P20272); test: Inhibitory affect of 1 uM of the substance against Cannabinoid receptor 1-mediated adenylyl cyclase using African green monkey (COS-7) cells transfected with the cDNA of rat CB1 receptor; format: functional, cell-based
# Cannabinoid receptor 2 [13] = molecular target: T1, Cannabinoid receptor 2; test: Inhibitory affect of 1 uM against African green monkey (COS-7) cells Chinese hamster ovary(CHO) cells transfected with the cDNA of human Cannabinoid receptor 2; format: cell-based
# Cannabinoid receptor 1 [14] = molecular target: T2, Cannabinoid receptor 1; test: Binding to Cannabinoid receptor 1 using African green monkey (COS-7) cells transfected with the cDNA of rat CB1.; format: cell-based
# Cannabinoid receptor 2 [15] = molecular target: T1, Cannabinoid receptor 2; test: Binding affinity to Cannabinoid receptor 2 using African green monkey (COS-7) cells Chinese hamster ovary(CHO) cells transfected with the cDNA of human CB2; format: cell-based
# Cannabinoid receptor 2 [16] = molecular target: T1, Cannabinoid receptor 2; test: Inhibitory affect of 1 uM of the substance against human Cannabinoid receptor 2-mediated adenylyl cyclase using African green monkey (COS-7) cells transfected with the cDNA of human CB2 receptor; No inhibition; format: functional, cell-based
# Cannabinoid receptor 2 [17] = molecular target: T1, Cannabinoid receptor 2; test: Inhibitory affect of 1 uM of the substance against African green monkey (COS-7) cells Chinese hamster ovary(CHO) cells transfected with the cDNA of human Cannabinoid receptor 2; format: cell-based
# [18] = molecular target: Cannabinoid receptor 1 (Rattus norvegicus) (UniProt P20272); test: Inhibitory affect of 1 uM of the substance against African green monkey (COS-7) cells transfected with the cDNA of rat Cannabinoid receptor 1; format: cell-based
# Cannabinoid receptor 1 (Rattus norvegicus), sequence (P20272 whole entry): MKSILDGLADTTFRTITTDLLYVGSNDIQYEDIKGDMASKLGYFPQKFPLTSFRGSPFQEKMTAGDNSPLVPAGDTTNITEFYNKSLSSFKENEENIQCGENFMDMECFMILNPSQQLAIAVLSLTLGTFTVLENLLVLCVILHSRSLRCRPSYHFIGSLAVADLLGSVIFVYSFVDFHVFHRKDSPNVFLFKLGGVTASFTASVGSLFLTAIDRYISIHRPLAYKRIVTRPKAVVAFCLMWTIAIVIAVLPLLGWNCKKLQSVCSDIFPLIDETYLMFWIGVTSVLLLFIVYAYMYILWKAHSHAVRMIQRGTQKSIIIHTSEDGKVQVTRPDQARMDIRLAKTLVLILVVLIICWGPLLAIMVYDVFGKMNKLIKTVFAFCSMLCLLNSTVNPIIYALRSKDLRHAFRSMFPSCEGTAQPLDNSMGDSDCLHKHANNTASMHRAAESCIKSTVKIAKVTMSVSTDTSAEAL
# T2 sequence (P20272 whole entry): as above
# T1 sequence (P34972 whole entry): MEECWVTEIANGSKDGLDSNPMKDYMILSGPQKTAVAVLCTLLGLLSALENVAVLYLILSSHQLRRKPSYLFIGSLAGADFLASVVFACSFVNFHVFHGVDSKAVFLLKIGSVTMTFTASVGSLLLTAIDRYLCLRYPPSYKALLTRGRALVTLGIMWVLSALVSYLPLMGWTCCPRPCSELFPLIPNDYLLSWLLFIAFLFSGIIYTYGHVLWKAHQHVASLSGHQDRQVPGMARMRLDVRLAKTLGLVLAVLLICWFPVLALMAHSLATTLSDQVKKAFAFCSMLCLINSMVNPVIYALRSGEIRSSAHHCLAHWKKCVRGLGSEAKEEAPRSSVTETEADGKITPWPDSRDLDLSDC
smiles,measurement,setting,value
CCCCCc1cc(O)c2c(c1)OC(C)(C)c1ccc(C)cc1-2 [CANNABINOL],EC50,Cannabinoid receptor 2 [1],261 nM
same,Ki,Cannabinoid receptor 2 [2],126 nM
same,Ki,Cannabinoid receptor 1 [3],211 nM
same,EC50,Cannabinoid receptor 1 [4],120 nM
same,Ki,Cannabinoid receptor 1 [5],392 nM
CCCCCCC(C)(C)c1cc(OC(C)=O)c2c(c1)OC(C)(C)[C@@H]1CC=C(C(=O)O)CC21 (some centres undefined),inhibition,[6],inactive
same,inhibition,[7],11%
same,inhibition,Cannabinoid receptor 2 [8],27%
same,Ki,Cannabinoid receptor 1 [9],> 10000 nM
same,inhibition,Cannabinoid receptor 2 [10],9%
CCCCCc1cc(OC(C)=O)c2c(c1)OC(C)(C)c1ccc(C(=O)O)cc1-2,inhibition,[11],35%
same,inhibition,Cannabinoid receptor 2 [8],2%
same,inhibition,[12],3%
same,Ki,Cannabinoid receptor 1 [9],> 10000 nM
same,inhibition,Cannabinoid receptor 2 [13],19%
CCCCCCC(C)(C)c1cc(OC(C)=O)c2c(c1)OC(C)(C)c1ccc(C(=O)O)cc1-2,EC50,Cannabinoid receptor 2 [1],39.3 nM
same,Ki,Cannabinoid receptor 1 [14],49.8 nM
same,Ki,Cannabinoid receptor 1 [9],556 nM
same,EC50,Cannabinoid receptor 1 [4],13.3 nM
same,Ki,Cannabinoid receptor 2 [15],17.3 nM
CCCCCc1cc(O)c2c(c1)oc(=O)c1ccc(C)cc12,inhibition,Cannabinoid receptor 2 [16],inactive
same,inhibition,Cannabinoid receptor 2 [17],14%
same,inhibition,[12],7%
same,Ki,Cannabinoid receptor 1 [9],> 10000 nM
same,inhibition,[18],14%
CCCCCc1cc(O)c2c(c1)OC(C)(C)[C@@H]1CCC(C)=C[C@@H]21,inhibition,Cannabinoid receptor 2 [8],21%
CCCCCCC(C)(C)c1cc(O)c2c(c1)OC(C)(C)c1ccc(CO)cc1-2,EC50,Cannabinoid receptor 2 [1],0.208 nM
same,Ki,Cannabinoid receptor 1 [14],0.1 nM
same,Ki,Cannabinoid receptor 1 [9],1.8 nM
same,EC50,Cannabinoid receptor 1 [4],0.056 nM
same,Ki,Cannabinoid receptor 2 [15],0.2 nM
CCCCCCC(C)(C)c1cc(O)c2c(c1)oc(=O)c1ccc(C)cc12,EC50,Cannabinoid receptor 2 [1],4.6 nM
same,Ki,Cannabinoid receptor 1 [14],32.7 nM
same,Ki,Cannabinoid receptor 1 [9],72.5 nM
same,EC50,Cannabinoid receptor 1 [4],9.6 nM
same,Ki,Cannabinoid receptor 2 [15],17.3 nM
CCCCCCC(C)(C)c1cc(O)c2c(c1)OC(C)(C)[C@@H]1CCC(C)=CC21 (some centres undefined),EC50,Cannabinoid receptor 2 [1],1.01 nM
same,Ki,Cannabinoid receptor 1 [14],0.241 nM
same,Ki,Cannabinoid receptor 1 [9],2.6 nM
same,EC50,Cannabinoid receptor 1 [4],0.58 nM
same,Ki,Cannabinoid receptor 2 [15],0.199 nM
CCCCCCC(C)(C)c1cc(O)c2c(c1)OC(C)(C)c1ccc(C(=O)O)cc1-2,EC50,Cannabinoid receptor 2 [1],5.4 nM
same,Ki,Cannabinoid receptor 1 [14],6.1 nM
same,Ki,Cannabinoid receptor 1 [9],6.1 nM
same,EC50,Cannabinoid receptor 1 [4],2.4 nM
same,Ki,Cannabinoid receptor 2 [15],4.8 nM
CCCCCCC(C)(C)c1cc(O)c2c(c1)OC(C)(C)[C@@H]1CC=C(CO)CC21 (some centres undefined),Ki,Cannabinoid receptor 1 [14],0.1 nM
same,Ki,Cannabinoid receptor 1 [9],0.19 nM
same,EC50,Cannabinoid receptor 1 [4],0.035 nM
CCCCCCC(C)(C)c1cc(O)c2c(c1)OC(C)(C)[C@@H]1CC=C(C(=O)O)CC21 (some centres undefined),EC50,Cannabinoid receptor 2 [1],116 nM
same,Ki,Cannabinoid receptor 1 [14],32.3 nM
same,Ki,Cannabinoid receptor 1 [9],481 nM
same,EC50,Cannabinoid receptor 1 [4],927 nM
same,Ki,Cannabinoid receptor 2 [15],170 nM
CCCCCc1cc(O)c2c(c1)OC(C)(C)c1ccc(C(=O)O)cc1-2,inhibition,Cannabinoid receptor 2 [17],23%
same,inhibition,Cannabinoid receptor 2 [8],6%
same,inhibition,[12],10%
same,Ki,Cannabinoid receptor 1 [9],602 nM
same,inhibition,[18],< 2%
CCCCCCC(C)(C)c1cc(O)c2c(c1)OC(C)(C)c1ccc(C)cc1-2,EC50,Cannabinoid receptor 2 [1],0.79 nM
same,Ki,Cannabinoid receptor 1 [14],2 nM
same,Ki,Cannabinoid receptor 1 [9],3.3 nM
same,EC50,Cannabinoid receptor 1 [4],0.18 nM
same,Ki,Cannabinoid receptor 2 [15],1.5 nM
CCCCCc1cc(O)c2c(c1)OC(C)(C)[C@@H]1CC=C(CO)CC21 (some centres undefined),inhibition,Cannabinoid receptor 2 [8],19%
same,Ki,Cannabinoid receptor 1 [14],25.8 nM
same,Ki,Cannabinoid receptor 1 [9],33.4 nM
same,EC50,Cannabinoid receptor 1 [4],39.9 nM
same,Ki,Cannabinoid receptor 2 [15],7.4 nM
CCCCCc1cc(O)c2c(c1)OC(C)(C)c1ccc(CO)cc1-2,inhibition,Cannabinoid receptor 2 [8],20%
same,Ki,Cannabinoid receptor 1 [14],38 nM
same,Ki,Cannabinoid receptor 1 [9],189 nM
same,EC50,Cannabinoid receptor 1 [4],58.1 nM
same,Ki,Cannabinoid receptor 2 [15],26.6 nM

# Source: ChEMBL document CHEMBL1130395, “Cannabinol derivatives: binding to cannabinoid receptors and inhibition of adenylylcyclase” (J Med Chem, 1997)
